Here are results for twelve compounds from ChEMBL document CHEMBL1201862, “PubChem BioAssay data set” (2004).

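Method: 48-hour compound exposure of cells in 96-well plates, five concentrations, linear interpolation of endpoints. At the GI50, growth is halved.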 Active and inactive are the calls of the source. Cut-off read from the data, not from the text of the source: active = GI50 up to about 1.1 µM and inactive = higher.

Holding throughout (assay): DTP human tumour cell line panel, 48 h
In assay [1] the test system is UACC-62.
Assay [2] has as its system SK-MEL-2.
For assay [3], the system named is RXF 393.
Assay [4] deals with MDA-MB-231.
The subject of assay [5] is OVCAR-4.
Assay [6] has as its system SN12C.
For assay [7], the system named is K562.
Assay [8] deals with ACHN.
Assay [9] concerns SF-268.
Assay [10] concerns IGROV-1.
For assay [11], the system named is CCRF-CEM.
The subject of assay [12] is HCT-116.
For assay [13], the system named is NCI/ADR-RES.
The subject of assay [14] is MCF7.
Assay [15] has as its system NCI-H522.
Assay [16] relates to NCI-H23.
Assay [17] has as its system HCC 2998.
Assay [18] relates to SF-539.
Assay [19] relates to OVCAR-5.
Assay [20] concerns MDA-N.

One may read the GI50 as the concentration at which growth is held to half of that of the control. For the compound `N#Cc1ccc(C2NN=CC23C(=O)c2ccccc2OC3c2ccccc2)cc1` (stereo not drawn), the GI50 in assay [1] was 26.7 µM (inactive); in assay [2], 29.5 µM (inactive); in assay [3], 15 µM (inactive); in assay [4], 57.4 µM (inactive); in [5], 33.8 µM (inactive); in [6] it was 41.1 µM (inactive). The GI50 in assay [7] is 33.5 µM (inactive); in assay [8], 34.7 µM (inactive); in assay [9], 52.4 µM (inactive); in [10] it was 50.6 µM (inactive); in assay [11], 32.6 µM (inactive); in assay [12], 20.5 µM (inactive). The GI50 in assay [13] was 31.5 µM (inactive); in assay [14] it was 34.2 µM (inactive); in assay [15] it was 24.2 µM (inactive); in assay [16], 30.1 µM (inactive); in assay [17], 35.7 µM (inactive); in [18], 42.2 µM (inactive). The GI50 in assay [19] was 45.7 µM (inactive).
As to `CC(C)NC(=O)OCc1c2c(n(C)c1COC(=O)NC(C)C)-c1ccccc1CC2`, the GI50 in [1] was 12.7 µM (inactive); in assay [2] it was 14.5 µM (inactive); in assay [3], 12.5 µM (inactive); in assay [5], 15 µM (inactive); in [6], 13 µM (inactive); in assay [7] it was 4.26 µM (inactive). Moreover, the GI50 in [9] is 10.2 µM (inactive); in [10] it was 14 µM (inactive); in assay [11], 2.07 µM (inactive); in [12], 10 µM (inactive); in assay [13], 15 µM (inactive); in assay [14] it was 10.5 µM (inactive). In addition, the GI50 in assay [15] was 5.32 µM (inactive); in assay [16], 6.71 µM (inactive); in [17], 13.1 µM (inactive); in [18], 15.4 µM (inactive); in assay [19], 17.2 µM (inactive).
Turning to `COCn1cnc2c(=O)n(-c3ccc(OC)cc3)c(=S)n(-c3ccc(OC)cc3)c21`, the GI50 is > 100 µM (inactive) in [1]; > 100 µM (inactive) in [2]; > 100 µM (inactive) in assay [3]; > 100 µM (inactive) in assay [4]; 89.3 µM (inactive) in assay [5]; > 100 µM (inactive) in assay [6]. Besides, the GI50 in assay [7], in [8], in assay [9], in assay [10], in assay [11] and in assay [12] was > 100 µM (inactive) each time. Also, the GI50 in [13], in assay [14], in assay [15], in assay [16], in assay [17] and in assay [18] was > 100 µM (inactive) in each case. Further, in [19], the GI50 is > 100 µM (inactive).
Turning to `CC(C)(C)OC(=O)NCC(C#N)CNC(=O)OC(C)(C)C`, the GI50 in assay [1], in [3], in [4], in assay [5], in assay [6] and in [7] was > 100 µM (inactive) in each case. Moreover, the GI50 in [8], in [9], in assay [10], in assay [11], in assay [12] and in assay [13] was > 100 µM (inactive) throughout. Further, the GI50 in assay [14], in [15], in assay [16], in assay [17], in assay [18] and in [19] was > 100 µM (inactive) each time.
As to `COc1ccc(-n2c(N)c(C#N)c(C#N)c2-c2ccccc2)cc1`, the GI50 in [1] is 10.7 µM (inactive); in assay [2], 22.8 µM (inactive); in [3], 23.8 µM (inactive); in assay [4] it was > 100 µM (inactive); in [5], 15.1 µM (inactive); in assay [6], > 100 µM (inactive). Moreover, the GI50 is > 100 µM (inactive) in [8]; 31.1 µM (inactive) in [9]; 24.2 µM (inactive) in assay [10]; > 100 µM (inactive) in assay [11]; > 100 µM (inactive) in assay [12]; > 100 µM (inactive) in [13]. For the same compound, the GI50 in [14] was > 100 µM (inactive); in assay [15], 59.4 µM (inactive); in [16], > 100 µM (inactive); in assay [17] it was > 100 µM (inactive); in assay [18], 11 µM (inactive); in [19], > 100 µM (inactive).
Consider `Cc1ccc(S(=O)(=O)NNC(C[N+](=O)[O-])c2ccccc2)cc1` (stereo not drawn), for which the GI50 in assay [1] is 26.1 µM (inactive); in assay [2] it was 34.2 µM (inactive); in assay [3], 2.94 µM (inactive); in [4], 28.4 µM (inactive); in assay [5], 15.8 µM (inactive); in assay [6], 32 µM (inactive). The GI50 in assay [7] is 0.787 µM (active); in assay [8] it was 16.1 µM (inactive); in assay [9], 15.3 µM (inactive); in assay [10] it was 7.23 µM (inactive); in assay [11], > 100 µM (inactive); in [12], 4.14 µM (inactive). Moreover, the GI50 in assay [13] was 54.6 µM (inactive); in [14] it was 3.88 µM (inactive); in assay [15], 23.4 µM (inactive); in assay [16], 43 µM (inactive); in assay [17] it was 2.9 µM (inactive); in [18] it was 27.1 µM (inactive). For the same compound, the GI50 in assay [19] was 44.8 µM (inactive).
On to `N#COc1ccc(Oc2ccc(OC#N)cc2)cc1`, for which the GI50 in assay [1] was 47.1 µM (inactive); in [2] it was > 100 µM (inactive); in [3], > 100 µM (inactive); in assay [5], > 100 µM (inactive); in [6], 55.5 µM (inactive); in [7] it was 36.7 µM (inactive). Besides, the GI50 in assay [8] was 35.5 µM (inactive); in [9], > 100 µM (inactive); in assay [10] it was > 100 µM (inactive); in assay [11], 22.5 µM (inactive); in [12], > 100 µM (inactive); in assay [15] it was 43.4 µM (inactive). Also, the GI50 was 70.5 µM (inactive) in assay [16], > 100 µM (inactive) in assay [17], 43.5 µM (inactive) in [18] and > 100 µM (inactive) in [19].
As to `CC(C)(C)OC(=O)N1C(=O)C2CCCC21` (stereo not drawn), the GI50 in assay [1], in [2], in [3], in assay [4], in assay [5] and in assay [6] was > 100 µM (inactive) each time. The GI50 in assay [8], in assay [9], in assay [10], in assay [11], in assay [12] and in [13] was > 100 µM (inactive) throughout. The GI50 in assay [16], in [17] and in [19] was > 100 µM (inactive) in each case.
`COc1ccc(C(=O)Cc2ccc(Br)cc2)cc1OC`: the GI50 in [1] was > 100 µM (inactive); in assay [2], > 100 µM (inactive); in [3], 72.8 µM (inactive); in assay [5], > 100 µM (inactive); in [6], > 100 µM (inactive); in assay [7], > 100 µM (inactive). The GI50 in assay [8] is > 100 µM (inactive); in assay [9], > 100 µM (inactive); in assay [10] it was > 100 µM (inactive); in [11], > 100 µM (inactive); in [12] it was > 100 µM (inactive); in assay [15], 79.3 µM (inactive). Further, the GI50 in assay [16], in assay [17], in assay [18] and in assay [19] was > 100 µM (inactive) each time.
On to `COC1(OC)CC2C(=O)N(Cc3ccccc3)C1C(S(=O)(=O)c1ccccc1)C2C(C)S(=O)(=O)c1ccccc1` (stereo not drawn), for which the GI50 in assay [1], in assay [2], in assay [3], in [5], in assay [6] and in assay [7] was > 100 µM (inactive) throughout. The GI50 in assay [8], in assay [9], in assay [10], in assay [11], in [12] and in assay [15] was > 100 µM (inactive) in each case. The GI50 in assay [16], in assay [17], in [18] and in assay [19] was > 100 µM (inactive) throughout.
`COc1cc(C2(O)c3ccccc3C3=NCCN32)cc(OC)c1OC` (stereo not drawn): the GI50 in assay [1], in [2], in assay [4], in assay [5], in assay [6] and in assay [7] was > 100 µM (inactive) in each case. For the same compound, the GI50 in [20], in [8], in assay [9], in assay [11], in [12] and in assay [13] was > 100 µM (inactive) throughout. In addition, the GI50 in assay [16] and in assay [17] was > 100 µM (inactive) in each case.
Regarding `COC(=O)C(=O)C(C(=O)C=C(C)C)C(=O)C(=O)Nc1cccc(C(C)=O)c1` (stereo not drawn), the GI50 in [1], in [2], in [3], in assay [5], in assay [6] and in assay [7] was > 100 µM (inactive) in each case. The GI50 in assay [8], in assay [9], in [10], in [11], in assay [12] and in assay [15] was > 100 µM (inactive) throughout. The GI50 in assay [16], in assay [17], in assay [18] and in [19] was > 100 µM (inactive) throughout.
